Test results as given in US20230077514A1, “METHODS FOR MODULATING CALORIE CONSUMPTION” (Duke University, priority 2020, published 2023).
“Also recorded” adds a separate entry of the source.

What was measured:
[1] = test system: cervical vagus nerve; assay: Whole nerve electrophysiology of the cervical vagus during duodenal sugar perfusion; assay type: in vivo, mice; conditions: for vagal response (firing) to intraduodenal sugar vs baseline: wild-type mice, sucrose 300 mM, D-glucose 150 mM, fructose 150 mM, galactose 150 mM, maltodextrin 8%, α-MGP 150 mM, sucralose 15 mM, acesulfame K 15 mM, saccharin 15 mM
Protocol: FIG. 1. […] Model: sugars are perfused into the duodenal lumen while nerve activity is recorded from the cervical vagus of anesthetized wild-type mice.
The proximal duodenum was perfused with sugars, thus bypassing any gustatory or gastric activation. Sugars were tested based on the following properties: both caloric content and sweet taste (sucrose [300 mM], D-glucose [150 mM], […], galactose [150 mM]), calorie-only (maltodextrin [8%], alpha-methylglucopyranoside (α-MGP) [150 mM]), or taste-only (sucralose [15 mM], acesulfame-K [15 mM], saccharin [15 mM]) (FIG. 1, FIG. 2, FIG. 3, FIG. 4).

[2] = test system: duodenal Cck cells; assay: Vagal recording with intraluminal 532 nm laser silencing of duodenal Cck (neuropod) cells; assay type: in vivo; conditions: Cck_Halo mice; sucrose 300 mM, α-mgp 150 mM, sucralose 15 mM
Protocol: FIG. 9. Model: intraluminal 532 nm laser activates NpH3 chloride channels to silence duodenal Cck cells in CckCRE_NpH3 mice.
Using whole nerve electrophysiology of the cervical vagus nerve, it was confirmed that vagal activity increases in the presence of luminal sugars. Kaelberer et al., Science 361 (6408) (2018). The proximal duodenum was perfused with sugars, thus bypassing any gustatory or gastric activation. Sugars were tested based on the following properties: both caloric content and sweet taste (sucrose [300 mM], D-glucose [150 mM], fructose [150 mM], galactose [150 mM]), calorie-only (maltodextrin [8%], alpha-methylglucopyranoside (α-MGP) [150 mM]), or taste-only (sucralose [15 mM], acesulfame-K [15 mM], saccharin [15 mM]) (FIG. 1, FIG. 2, FIG. 3, FIG. 4). […] Intraluminal application of the 532 nm laser eliminated the vagal response to sucrose [300 mM], α-mgp [150 mM], and sucralose [15 mM] (n ≥ 5, p < 0.001) (FIG. 10 and FIG. 11; laser activation and wild-type controls). Thus, neuropod cells are required to sense both the calorie and taste properties of sugar and communicate these signals onto vagal neurons.
Cck neuropod cells in the duodenum express receptors for fatty acids (FIG. 69), analyzed by bulk sequencing Cck-positive and Cck-negative epithelial cells in the duodenum of CckGFP mice. Thus, CCK cells in the duodenum may signal the presence of fatty acids to the vagus nerve. To test this, the silencing optogenetic channel was expressed in Cck cells of mice. […] In the duodenum, there is overlap in cells expressing CCK and the vesicular glutamate transporter 1 (Vglut1), required for release of the neurotransmitter glutamate. To test whether glutamate is required as a signaling molecule for fat transduction to the vagus nerve, a cocktail of glutamate receptor inhibitors was perfused through the duodenum of wild type mice. Blockade of ionotropic and metabotropic glutamate receptors blocked vagal firing elicited by glutamate (FIG. 71). […] In an initial baseline test, mice freely explore an arena for 20 minutes, during which their position in the arena measured. […]

[3] = test system: murine small intestinal organoids; assay: Glutamate release assay on murine small intestinal organoids; assay type: cell-based, mouse; conditions: sucrose 300 mM, α-MGP 150 mM, sucralose 15 mM; for glutamate concentration in the supernatant after stimulation: PBS control 2.632 ± 1.280; for glutamate release compared to PBS: p < 0.05
Protocol: Slc5a1+ Cck-GFP cells express transcripts for the vesicular glutamate transporters Slc17a6, Slc17a7, Slc17a8 and the excitatory neurotransmitter transporters Slc1a1, Slc1a2, and Slc1a3 (FIG. 4). […] A glutamate release assay was performed on murine small intestinal organoids to determine if glutamate release was stimuli specific (FIG. 24-left). α-MGP was used for a caloric stimulus with no sweet taste, because it is not metabolized once it enters the cell and thus allowed for isolation of cell entry. After nutrient stimulation, the glutamate concentration in the supernatant was 2.632 ± 1.280 ng/µL for PBS control, 13.460 ± 1.724 ng/µL for sucrose [300 mM], 18.183 ± 7.904 ng/µL for α-MGP [150 mM], and 6.053 ± 1.169 ng/µL for sucralose [15 mM].

[4] = test system: human duodenal organoids; assay: Glutamate release assay on human duodenal organoids; assay type: cell-based; conditions: sucrose 300 mM, α-MGP 150 mM, sucralose 15 mM, n = 1 human
[5] = biological target: T1, sweet taste receptor T1R2/3 (Mus musculus, UniProt Q925D8+Q925I4); assay: Receptor pharmacology in whole nerve (vagal) electrophysiology: sweet taste receptor block; assay type: in vivo, mice; conditions: gurmarin 7 µM
T1 construct: from tissue; host or cells: living mouse: duodenal lumen perfused, cervical vagus nerve recorded
T1 sequence (Q925I4 20-843): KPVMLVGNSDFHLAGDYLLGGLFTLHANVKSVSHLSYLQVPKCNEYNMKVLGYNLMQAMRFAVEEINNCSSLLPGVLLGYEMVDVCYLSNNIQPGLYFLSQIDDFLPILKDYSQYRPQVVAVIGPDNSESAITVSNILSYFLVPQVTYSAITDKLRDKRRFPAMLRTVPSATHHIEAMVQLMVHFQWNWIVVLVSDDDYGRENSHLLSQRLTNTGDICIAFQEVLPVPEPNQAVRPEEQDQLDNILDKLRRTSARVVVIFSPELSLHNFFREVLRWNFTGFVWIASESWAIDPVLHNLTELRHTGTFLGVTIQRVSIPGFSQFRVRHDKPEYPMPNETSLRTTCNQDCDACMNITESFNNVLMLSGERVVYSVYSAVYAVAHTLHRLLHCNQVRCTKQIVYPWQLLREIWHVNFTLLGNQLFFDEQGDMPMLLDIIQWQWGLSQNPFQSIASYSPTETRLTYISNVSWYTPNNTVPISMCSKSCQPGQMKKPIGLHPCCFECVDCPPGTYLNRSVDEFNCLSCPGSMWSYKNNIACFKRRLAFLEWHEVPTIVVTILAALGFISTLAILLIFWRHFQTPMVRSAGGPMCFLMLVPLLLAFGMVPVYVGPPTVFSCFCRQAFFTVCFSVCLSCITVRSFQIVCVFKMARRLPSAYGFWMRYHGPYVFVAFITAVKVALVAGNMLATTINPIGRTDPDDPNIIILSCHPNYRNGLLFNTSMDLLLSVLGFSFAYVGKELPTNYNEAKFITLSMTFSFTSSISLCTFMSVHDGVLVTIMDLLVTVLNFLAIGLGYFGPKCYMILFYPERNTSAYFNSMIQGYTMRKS
T1 sequence (Q925D8 21-858): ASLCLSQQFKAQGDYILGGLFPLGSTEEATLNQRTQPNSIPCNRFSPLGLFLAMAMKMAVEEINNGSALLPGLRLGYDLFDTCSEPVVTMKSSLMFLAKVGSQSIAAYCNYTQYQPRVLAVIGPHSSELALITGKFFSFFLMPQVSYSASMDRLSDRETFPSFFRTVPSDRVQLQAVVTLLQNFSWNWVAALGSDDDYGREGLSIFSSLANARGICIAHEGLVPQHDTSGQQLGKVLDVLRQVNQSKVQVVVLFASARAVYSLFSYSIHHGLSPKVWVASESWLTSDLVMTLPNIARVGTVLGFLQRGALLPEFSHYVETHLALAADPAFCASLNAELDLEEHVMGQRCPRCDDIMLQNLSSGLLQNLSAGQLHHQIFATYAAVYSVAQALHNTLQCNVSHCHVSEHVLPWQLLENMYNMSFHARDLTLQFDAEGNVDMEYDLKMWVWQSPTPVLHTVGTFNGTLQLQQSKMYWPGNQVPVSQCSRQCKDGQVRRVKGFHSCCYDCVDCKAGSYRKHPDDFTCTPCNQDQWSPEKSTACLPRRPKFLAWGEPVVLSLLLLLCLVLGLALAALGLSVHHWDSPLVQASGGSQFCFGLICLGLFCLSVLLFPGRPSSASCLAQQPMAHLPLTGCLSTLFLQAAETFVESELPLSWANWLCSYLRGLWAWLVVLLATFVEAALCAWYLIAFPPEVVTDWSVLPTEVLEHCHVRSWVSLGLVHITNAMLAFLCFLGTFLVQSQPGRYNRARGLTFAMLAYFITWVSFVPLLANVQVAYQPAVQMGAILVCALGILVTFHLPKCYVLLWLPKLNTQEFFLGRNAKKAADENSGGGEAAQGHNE
Text: (FIG. 21 and FIG. 22), showing neuropod cells use two distinct receptor mechanisms to transduce caloric and non-caloric sugar signals to the vagus nerve.

[6] = Two-bottle choice between iso-sweet sucrose and sucralose; assay type: in vivo, mice
Protocol: Domingos et al., Nature Neurosci. […] Behav. […] Bennink et al., J. Nucl. […] Perez et al., Pharmacol. Biochem. Behav. […] Thus, a goal of this study was to determine if synaptic gut-brain neurotransmission drives sugar preference.
CckCRE_NpH3 mice (n = 8) and littermate controls (n = 5) were implanted with the flexible fiberoptic and given the choice between iso-sweet sucrose [300 mM] and sucralose [15 mM] in a one-hour choice assay (FIG. 38 and FIG. 53). […] Whether the caloric neurotransmitter glutamate was contributing to the sucrose preference was tested.

[7] = test system: P2 purinoceptor; assay: Vagal nerve recording with P2 purinoceptor antagonist; assay type: in vivo, mice; conditions: PPADS 25 mg/kg
Text: Margolskee, J. Biol. Chem. 277(1): 1-4 (2002); Lu et al., Nature Com. 10(1): (2019). […] (FIG. 33, FIG. 36, and FIG. 37).

O=C1NS(=O)(=O)c2ccccc21 [saccharin]
vagal response (firing) to intraduodenal sugar vs baseline [1]: no significant

COC1OC(CO)C(O)C(O)C1O (stereo not drawn) [α-MGP, alpha-methylglucopyranoside]
vagal response (firing) to intraduodenal sugar vs baseline [1]: responds significantly
vagal response with Cck cells silenced by 532 nm laser [2]: eliminated
glutamate concentration in the supernatant after stimulation [3]: 18.183 ± 7.904 ng/µL
glutamate release compared to PBS [3]: significantly higher
glutamate release compared to PBS ([3]; listed as aMGP): elicit significant release of glutamate
glutamate release compared to PBS control [4]: elicited glutamate release
glutamate release compared to PBS control ([4]; listed as aMGP): release significant amounts of glutamate

O=C(CO)[C@@H](O)[C@H](O)[C@H](O)CO [fructose]
vagal response at high concentrations ([1]; fructose 600 mM and 1 M, n.s.): blunted vagal response
vagal response (firing) to intraduodenal sugar vs baseline [1]: no significant

gurmarin
effect on vagal firing elicited by sucralose ([5]; sucralose 15 mM): abolished; also recorded: inhibited
effect on vagal response to sucrose ([5]; sucrose 300 mM): did not affect
effect on vagal response to α-MGP ([5]; α-MGP 150 mM): did not affect

CC1=CC(=O)[N-]S(=O)(=O)O1.[K+] [acesulfame K]
vagal response (firing) to intraduodenal sugar vs baseline [1]: responds significantly

OC[C@H]1O[C@@](CO)(O[C@H]2O[C@H](CO)[C@@H](O)[C@H](O)[C@H]2O)[C@@H](O)[C@@H]1O [sucrose]
vagal response (firing) to intraduodenal sugar vs baseline [1]: responds significantly
vagal response with Cck cells silenced by 532 nm laser [2]: eliminated
glutamate concentration in the supernatant after stimulation [3]: 13.460 ± 1.724 ng/µL
glutamate release compared to PBS [3]: significantly higher; also recorded: elicit significant release of glutamate
glutamate release compared to PBS control [4]: elicited glutamate release; also recorded: release significant amounts of glutamate
preference for sucrose ([6]; CckCRE_NpH3 mice, control 473 nm laser, one-hour choice): 90.8% ± 3.74%
preference for sucrose ([6]; CckCRE_NpH3 mice, silencing 532 nm laser, one-hour choice vs sucralose 15 mM): 58.9% ± 3.92%
preference for sucrose ([6]; negative genotype littermate controls, 473 nm): 84.2% ± 6.30%
preference for sucrose ([6]; negative genotype littermate controls, 532 nm): 87.7% ± 2.21

O=C[C@H](O)[C@@H](O)[C@@H](O)[C@H](O)CO [galactose]
vagal response (firing) to intraduodenal sugar vs baseline [1]: elicited significant vagal firing

Cc1nc(N=Nc2ccc(S(=O)(=O)O)cc2S(=O)(=O)O)c(COP(=O)(O)O)c(C=O)c1O [PPADS, pyridoxalphosphate-6-azophenyl-2’,4'-disulfonic acid]
time to peak vagal firing rate to sucralose ([7]; sucralose 15 mM): prolonged
effect on vagal response to sucralose ([7]; sucralose 15 mM, wild-type mice): significantly attenuates; also recorded: abolished
effect on vagal response to sucrose ([7]; sucrose 300 mM): not affected
effect on vagal response to α-MGP ([7]; α-MGP 150 mM): not affected
